Results as given in US20210085640A1, “ACYLATED CATECHIN POLYPHENOLS AND METHODS OF THEIR USE FOR THE TREATMENT OF CANCER” (Flagship Pioneering Innovations V, Inc., priority 2018, published 2021).

Experiments:
Assay type in all cases: cell-based
MCF7 breast cancer cells = experiment: Cancer cell survival (CellTiter-Glo), MCF7; conditions: 72 h
Procedure: (§1) The cells were prepared as follows. Cells were harvested during logarithmic growth, counted, and adjusted to 4.44×10^4 cells/mL with culture media. 90 μL of suspended cells were added to wells of 96-well plates for a final cell count of 4×10^3 cells/well. The plates were incubated overnight at 37 C with 5% CO2 overnight.
(§2) The test compounds were assayed as follows. Compound solutions were mixed at 10× final concentrations in cell media: 1 μM-10 mM (fatty acids) or 100 nM-1 mM (all other compounds). […] of solution was added to each well of cells in triplicate for each concentration. Well plates were incubated for 72 h at 37 C with 5% CO2 and then assayed with CellTiter-Glo by adding 50 μL of CTG solution to each well. Cells were lysed by shaking on an orbital shaker for 5 min. Plates were incubated at room temperature for 20 min and then each well's luminescence was measured. The surviving percentage of cells was determined as:
(§3) Survival %=(LumTest article−LumMedium control)/(LumNone treated−LumMedium control)[…]
(§4) Cytotoxicity was assessed at nine concentration levels for each compound and the 50% inhibition concentration (IC50) determined for each compound.

[1] = system: Daudi lymphoma cancer cells; experiment: Cancer cell survival (CellTiter-Glo), Daudi; conditions: 72 h
Procedure: as §1, §2, §3
Activity was assessed at nine concentration levels for each compound and the 50% inhibition concentration (IC50) determined for each compound.

[2] = system: HCT 116 colorectal cancer cells; experiment: Cancer cell survival (CellTiter-Glo), HCT 116; conditions: HCT 116 cells, 72 h
Procedure: as §1, §2, §3, §4

AGS stomach cancer cells = experiment: Cancer cell survival (CellTiter-Glo), AGS; set-up: Cell survival at given concentration: unit not given here
Procedure: as §1, §2, §3, §4

[3] = system: PC-3 prostate cancer cells; experiment: Cancer cell survival (CellTiter-Glo), PC-3; conditions: PC-3 cells, 72 h
Procedure: as §1, §2, §3, §4

A-431 skin cancer cells = experiment: Cancer cell survival (CellTiter-Glo), A-431; set-up: Cell survival at given concentration: unit not given here; conditions: A-431 cells, 72 h
Procedure: as §1, §2, §3, §4

T24 bladder cancer cells = experiment: Cancer cell survival (CellTiter-Glo), T24; conditions: 72 h
Procedure: as §1, §2, §3
Efficacy was assessed at nine concentration levels for each compound and the 50% inhibition concentration (IC50) determined for each compound.

A549 lung cancer cells = experiment: Cancer cell survival (CellTiter-Glo), A549; conditions: 72 h
Procedure: as §1, §2, §3, §4

Cc1c(C)c2c(c(C)c1O)CC[C@@](C)(CCC[C@H](C)CCC[C@H](C)CCCC(C)C)O2 [alpha-tocopherol]
Cell survival at given concentration (MCF7 breast cancer cells; 101 nM): 1.02
Cell survival at given concentration (MCF7 breast cancer cells; 318 nM): 1.02
Cell survival at given concentration (MCF7 breast cancer cells; 1 μM): 1.04
Cell survival at given concentration (MCF7 breast cancer cells; 3 μM): 1.05
Cell survival at given concentration (MCF7 breast cancer cells; 10 μM): 1.05
Cell survival at given concentration (MCF7 breast cancer cells; 32 μM): 1.04
Cell survival at given concentration (MCF7 breast cancer cells; 100 μM): 1.03
Cell survival at given concentration (MCF7 breast cancer cells; 316 μM): 1.02
Cell survival at given concentration (MCF7 breast cancer cells; 1000 μM): 1.01
Cell survival at given concentration ([1]; 101 nM): 0.98
Cell survival at given concentration ([1]; 318 nM): 0.99
Cell survival at given concentration ([1]; 1 μM): 1.01
Cell survival at given concentration ([1]; 3 μM): 1.00
Cell survival at given concentration ([1]; 10 μM): 1.02
Cell survival at given concentration ([1]; 32 μM): 1.04
Cell survival at given concentration ([1]; 100 μM): 1.04
Cell survival at given concentration ([1]; 316 μM): 1.03
Cell survival at given concentration ([1]; 1000 μM): 1.02
Cell survival at given concentration ([2]; 101 nM): 0.99
Cell survival at given concentration ([2]; 318 nM): 0.98
Cell survival at given concentration ([2]; 1 μM): 1.00
Cell survival at given concentration ([2]; 3 μM): 1.01
Cell survival at given concentration ([2]; 10 μM): 1.01
Cell survival at given concentration ([2]; 32 μM): 1.03
Cell survival at given concentration ([2]; 100 μM): 1.03
Cell survival at given concentration ([2]; 316 μM): 0.98
Cell survival at given concentration ([2]; 1000 μM): 0.97
Cell survival at given concentration (AGS stomach cancer cells; 101 nM): 1.03
Cell survival at given concentration (AGS stomach cancer cells; 318 nM): 1.03
Cell survival at given concentration (AGS stomach cancer cells; 1 μM, Table 10.1): 1.07
Cell survival at given concentration (AGS stomach cancer cells; 3 μM, Table 10.1): 1.04
Cell survival at given concentration (AGS stomach cancer cells; 10 μM, Table 10.1): 1.07
Cell survival at given concentration (AGS stomach cancer cells; 32 μM, Table 10.1): 1.06
Cell survival at given concentration (AGS stomach cancer cells; 100 μM, Table 10.1): 1.09
Cell survival at given concentration (AGS stomach cancer cells; 316 μM): 1.06
Cell survival at given concentration (AGS stomach cancer cells; 1000 μM): 1.06
Cell survival at given concentration ([3]; 101 nM): 1.01
Cell survival at given concentration ([3]; 318 nM): 0.99
Cell survival at given concentration ([3]; 1 μM): 1.04
Cell survival at given concentration ([3]; 3 μM): 1.00
Cell survival at given concentration ([3]; 10 μM): 1.03
Cell survival at given concentration ([3]; 32 μM): 1.00
Cell survival at given concentration ([3]; 100 μM): 0.99
Cell survival at given concentration ([3]; 316 μM): 1.02
Cell survival at given concentration ([3]; 1000 μM): 1.01
Cell survival at given concentration (A-431 skin cancer cells; 101 nM): 1.00
Cell survival at given concentration (A-431 skin cancer cells; 318 nM): 0.99
Cell survival at given concentration (A-431 skin cancer cells; 1 μM): 1.01
Cell survival at given concentration (A-431 skin cancer cells; 3 μM): 1.01
Cell survival at given concentration (A-431 skin cancer cells; 10 μM): 1.03
Cell survival at given concentration (A-431 skin cancer cells; 32 μM): 1.01
Cell survival at given concentration (A-431 skin cancer cells; 100 μM): 1.02
Cell survival at given concentration (A-431 skin cancer cells; 316 μM): 1.01
Cell survival at given concentration (A-431 skin cancer cells; 1000 μM): 1.04
Cell survival at given concentration (T24 bladder cancer cells; 101 nM): 1.02
Cell survival at given concentration (T24 bladder cancer cells; 318 nM): 1.01
Cell survival at given concentration (T24 bladder cancer cells; 1 μM): 0.96
Cell survival at given concentration (T24 bladder cancer cells; 3 μM): 1.00
Cell survival at given concentration (T24 bladder cancer cells; 10 μM): 0.99
Cell survival at given concentration (T24 bladder cancer cells; 32 μM): 1.06
Cell survival at given concentration (T24 bladder cancer cells; 100 μM): 0.98
Cell survival at given concentration (T24 bladder cancer cells; 316 μM): 1.07
Cell survival at given concentration (T24 bladder cancer cells; 1000 μM): 1.02
Cell survival at given concentration (A549 lung cancer cells; 101 nM): 1.03
Cell survival at given concentration (A549 lung cancer cells; 318 nM): 1.05
Cell survival at given concentration (A549 lung cancer cells; 1 μM): 1.06
Cell survival at given concentration (A549 lung cancer cells; 3 μM): 1.04
Cell survival at given concentration (A549 lung cancer cells; 10 μM): 1.08
Cell survival at given concentration (A549 lung cancer cells; 32 μM): 1.09
Cell survival at given concentration (A549 lung cancer cells; 100 μM): 1.08
Cell survival at given concentration (A549 lung cancer cells; 316 μM): 1.07
Cell survival at given concentration (A549 lung cancer cells; 1000 μM): 1.02
